Measurements taken from ChEMBL document CHEMBL3046582, “Antifeedant activity of sesquiterpenes from celastraceae” (1997).

How the values were obtained:
[1] = test system: Spodoptera littoralis; assay: Antifeedant activity against newly ecdysed fifth-instar larval stage of Spodoptera littoralis in compound-pretreated lettuce leaf disks assessed as consumed area of leaf disks at 10 ug/cm'2 measured at 30 min intervals for 4-5 hr post-drug exposure by choice test; format: functional
[2] = test system: Spodoptera littoralis; assay: Antifeedant activity against newly ecdysed fifth-instar larval stage of Spodoptera littoralis in compound-pretreated lettuce leaf disks assessed as consumed area of leaf disks at 1 ug/cm'2 measured at 30 min intervals for 4-5 hr post-drug exposure by choice test; format: functional

Row | Compound | FR50 [1] | FR50 [2]
1 | CC(=O)O[C@@H]1[C@H]2C[C@H](OC(=O)c3ccccc3)[C@]3(C)[C@@H](OC(=O)c4ccccc4)[C@H](C(C)=O)[C@H](O)C(C)[C@@]13OC2(C)C (stereo not given in full) | 0.63 | –
2 | CC(=O)O[C@@H]1[C@@H]2[C@@H](OC(C)=O)[C@@]3(OC2(C)C)[C@@](OC(C)=O)([C@@H](OC(=O)c2ccccc2)CC[C@]3(C)O)[C@@H]1OC(=O)c1ccccc1 | 0.24 | 0.58
3 | CC(=O)O[C@@H]1[C@H]2C[C@H](OC(=O)c3ccccc3)[C@]3(C)[C@@H](OC(=O)c4ccccc4)[C@H](O)[C@H](C(C)=O)[C@](C)(O)[C@@]13OC2(C)C | 0.56 | –
4 | CC(=O)O[C@H]1CCC(C)[C@]23OC(C)(C)[C@H]([C@@H](O)[C@H](OC(=O)c4ccccc4)[C@]12OC(C)=O)[C@H]3OC(C)=O (stereo not given in full) | 0.05 | 0.25
5 | CC(=O)O[C@H]1CCC(C)[C@]23OC(C)(C)[C@H]([C@@H](C(C)=O)[C@H](OC(=O)c4ccccc4)[C@]12OC(C)=O)[C@H]3OC(C)=O (stereo not given in full) | 0.04 | 0.44
6 | CC(=O)O[C@@H]1[C@@H]2[C@@H](OC(C)=O)[C@]3(OC2(C)C)C(C)C[C@H](C(C)=O)[C@H](OC(C)=O)[C@@]3(OC(C)=O)[C@H]1OC(=O)c1ccccc1 (stereo not given in full) | 0.07 | 0.53
7 | CC(=O)O[C@@H]1[C@H]2[C@@H](OC(=O)c3ccccc3)[C@@H](OC(=O)c3ccccc3)[C@]3(OC(C)=O)[C@@H](OC(=O)c4ccccc4)CC[C@](C)(O)[C@@]13OC2(C)C | 0.76 | –
8 | CC(=O)O[C@@H]1[C@H]2C[C@H](OC(=O)c3ccccc3)[C@]3(C)[C@@H](OC(=O)c4ccccc4)[C@H](C(C)=O)[C@H](C(C)=O)[C@](C)(O)[C@@]13OC2(C)C | 0.65 | –
9 | CC(=O)O[C@@H]1[C@H]2C(=O)[C@@H](OC(=O)c3ccccc3)[C@]3(O)[C@@H](OC(C)=O)[C@@H](C(C)=O)CC(C)[C@@]13OC2(C)C (stereo not given in full) | 0.41 | –
10 | TRIPHENYLSTANNYL ACETATE | 0.37 | –
11 | CC(=O)O[C@H]1[C@H](OC(=O)c2ccccc2)[C@@]2(C)[C@@H](O/C=C/c3ccccc3)C[C@@H]3[C@@H](OC(C)=O)[C@]2(OC3(C)C)[C@@](C)(O)[C@H]1O | 0.76 | –
12 | CC(=O)O[C@@H]1[C@H]2C[C@H](OC(=O)c3ccccc3)[C@]3(C)[C@@H](OC(=O)c4ccccc4)[C@H](C(C)=O)C[C@](C)(O)[C@@]13OC2(C)C | 0.35 | –
13 | CC(=O)O[C@H]1C[C@](C)(O)[C@]23OC(C)(C)[C@H]([C@@H](C(C)=O)[C@@H](OC(=O)c4ccccc4)[C@]2(OC(C)=O)[C@H]1OC(=O)c1ccccc1)[C@H]3OC(C)=O | 0.35 | –
14 | CC(=O)O[C@H]1C[C@@H]2[C@@H](OC(=O)c3cccnc3)[C@@]3(OC2(C)C)[C@@]1(C)[C@@H](OC(=O)c1ccccc1)CC[C@]3(C)O | 0.68 | –
15 | CC1(C)O[C@]23C[C@@H]1CC[C@]2(C)CC[C@H](O)[C@@]3(C)O | 0.52 | –
16 | COCCCC[C@@H]1[C@@H]2[C@@H](OC(C)=O)[C@@]3(OC2(C)C)[C@@](OC(C)=O)([C@@H](OC(=O)c2ccccc2)CC[C@]3(C)O)[C@@H]1OC(=O)c1ccccc1 | 0.45 | –
17 | CC(=O)O[C@@H]1[C@H]2C[C@H](OC(=O)c3ccccc3)[C@]3(OC(C)=O)[C@@H](OC(C)=O)[C@@H](C(C)=O)CC(C)[C@@]13OC2(C)C (stereo not given in full) | 0.36 | –
18 | CC(=O)O[C@@H]1[C@@H](O)[C@@H]2[C@@H](OC(=O)c3cccnc3)[C@@]3(OC2(C)C)[C@@]1(C)[C@@H](OC(=O)c1ccccc1)CC[C@]3(C)O | 0.74 | –
19 | CC(=O)O[C@H]1[C@H](OC(=O)c2ccccc2)[C@@]2(C)[C@@H](OC(=O)c3ccccc3)C[C@@H]3[C@@H](O)[C@]2(OC3(C)C)[C@@](C)(O)[C@H]1O | 0.6 | –
20 | CC(=O)O[C@H]1[C@@H]2[C@@H](O)[C@@]3(OC2(C)C)[C@](C)([C@H]1OC(=O)c1ccccc1)[C@@H](OC(=O)c1ccccc1)[C@H](OC(C)=O)[C@H](OC(C)=O)[C@]3(C)O | 0.38 | –
21 | CC(=O)O[C@H]1[C@H](OC(=O)c2ccccc2)[C@@]2(C)[C@@H](OC(=O)c3ccccc3)C[C@H]3C[C@]2(OC3(C)C)[C@@](C)(O)[C@H]1O | 0.61 | –
